This is an account of results in patent US9670227B2, “Thienopyrimidine derivatives, a process for their preparation and pharmaceutical compositions containing them” (LES LABORATOIRES SERVIER, priority 2013, dated 2017).

Where two headings read alike, the source gives them in different places.

Experiment [1] concerns H929 multiple myeloma tumour line. Description: In vitro cytotoxicity, Microculture Tetrazolium Assay. The experiment is classed as cell-based. As to conditions: H929 cells, 48 hours exposure, MTT, read-out: IC50 (μM) MTT H929. Here is the method:
The cytotoxicity studies were carried out on the H929 multiple myeloma tumour line.
The cells are distributed onto microplates and exposed to the test compounds for 48 hours.

A further experiment addresses Mcl-1 protein (UniProtKB primary accession number: Q07820) (Homo sapiens, UniProt Q07820). Description: Inhibition of Mcl-1 by fluorescence polarisation, Method 1. The experiment is classed as binding. The note with it: fluorescence polarisation test; Method 2 values are underlined in the patent (underlining not visible here); read-out: IC50 (M) Mcl-1 FP. In outline: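 Buffer of 10 mM HEPES pH 7.4 with 150 mM NaCl and 0.05% Tween 20 held 5 nM Mcl-1 and 1 nM fluorescein-tagged ligand (final). Compounds were tested as 11-point serial dilutions at 5% final DMSO, and binding was read by FP.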
(In general: Fluorescence polarisation rises when a labelled molecule tumbles more slowly, as on binding a larger partner.)

Mcl-1 protein, sequence (Q07820 whole entry): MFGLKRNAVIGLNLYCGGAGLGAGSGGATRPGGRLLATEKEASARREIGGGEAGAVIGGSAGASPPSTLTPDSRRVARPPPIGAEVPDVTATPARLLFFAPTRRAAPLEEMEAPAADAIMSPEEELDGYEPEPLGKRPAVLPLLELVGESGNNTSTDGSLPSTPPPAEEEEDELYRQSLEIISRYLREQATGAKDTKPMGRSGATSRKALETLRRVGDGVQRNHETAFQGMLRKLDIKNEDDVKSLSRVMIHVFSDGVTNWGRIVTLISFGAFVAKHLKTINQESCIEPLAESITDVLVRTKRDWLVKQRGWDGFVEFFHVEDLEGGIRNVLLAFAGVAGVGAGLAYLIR

One may read the IC50 as the midpoint of a concentration-inhibition curve. In the case of `COc1cccc(CC(Oc2ncnc3sc(-c4ccco4)c(-c4ccc(OCCN5CCN(C)CC5)c(Cl)c4C)c23)C(=O)O)c1` [Example 349, (2R)-2-{[(5Sa)-5-{3-chloro-2-methyl-4-[2-(4-methylpiperazin-1-yl)ethoxy]phenyl}-6-(furan-2-yl)thieno[2,3-d]pyrimidin-4-yl]oxy}-3-(3-methoxyphenyl)propanoic acid], the half-maximal inhibitory concentration (IC50) came to 2.46 µM in experiment [1] (Homo sapiens, NCI-H929, 48 h) and 2.7e-08 M at Mcl-1 protein.

With `COc1c(C)cccc1CC(Oc1ncnc2sc(-c3ccco3)c(-c3ccc(OCCN4CCN(C)CC4)c(Cl)c3C)c12)C(=O)O` [Example 351, (2R)-2-{[(5Sa)-5-{3-chloro-2-methyl-4-[2-(4-methylpiperazin-1-yl)ethoxy]phenyl}-6-(furan-2-yl)thieno[2,3-d]pyrimidin-4-yl]oxy}-3-(2-methoxy-3-methylphenyl)propanoic acid], the IC50 in experiment [1] (Homo sapiens, NCI-H929, 48 h) was determined as 0.526 µM; on Mcl-1 protein, 1.5e-08 M.

As to `COc1c(F)cccc1CC(Oc1ncnc2sc(-c3ccco3)c(-c3ccc(OCCN4CCN(C)CC4)c(Cl)c3C)c12)C(=O)O` [Example 352, (2R)-2-{[(5Sa)-5-{3-chloro-2-methyl-4-[2-(4-methylpiperazin-1-yl)ethoxy]phenyl}-6-(furan-2-yl)thieno[2,3-d]pyrimidin-4-yl]oxy}-3-(3-fluoro-2-methoxyphenyl)propanoic acid], the half-inhibitory concentration (IC50) in experiment [1] (Homo sapiens, NCI-H929, 48 h) came to 0.91 µM; on Mcl-1 protein, 1.4e-08 M.

For the molecule `Cc1ccccc1CC(Oc1ncnc2sc(-c3ccco3)c(-c3ccc(OCCN4CCN(C)CC4)c(Cl)c3C)c12)C(=O)O` [Example 354, (2R)-2-{[(5Sa)-5-{3-chloro-2-methyl-4-[2-(4-methylpiperazin-1-yl)ethoxy]phenyl}-6-(furan-2-yl)thieno[2,3-d]pyrimidin-4-yl]oxy}-3-(2-methylphenyl)propanoic acid], the concentration for half-maximal inhibition (IC50) in experiment [1] (Homo sapiens, NCI-H929, 48 h) came to 0.544 µM; on Mcl-1 protein, 1.1e-08 M.

For the molecule `Cc1c(-c2c(-c3ccco3)sc3ncnc(OC(Cc4ccccc4F)C(=O)O)c23)ccc(OCCN2CCN(C)CC2)c1Cl` [Example 357, (2R)-2-{[(5Sa)-5-{3-chloro-2-methyl-4-[2-(4-methylpiperazin-1-yl)ethoxy]phenyl}-6-(furan-2-yl)thieno[2,3-d]pyrimidin-4-yl]oxy}-3-(2-fluorophenyl)propanoic acid], the IC50 was determined as 3.39 µM in experiment [1] and 5.5e-07 M on Mcl-1 protein.

In the case of `Cc1c(-c2c(-c3ccco3)sc3ncnc(OC(Cc4ccccc4NC(=O)OC(C)(C)C)C(=O)O)c23)ccc(OCCN2CCN(C)CC2)c1Cl` [Example 358, (2R)-3-{2-[(tert-butoxycarbonyl)amino]phenyl}-2-{[(5Sa)-5-{3-chloro-2-methyl-4-[2-(4-methylpiperazin-1-yl)ethoxy]phenyl}-6-(furan-2-yl)thieno[2,3-d]pyrimidin-4-yl]oxy}propanoic acid], the IC50 amounted to 1.61 µM in experiment [1] (Homo sapiens, NCI-H929, 48 h) and 9.5e-09 M on Mcl-1 protein.

Consider `Cc1c(-c2c(-c3ccco3)sc3ncnc(OC(Cc4ccccc4SCC(F)(F)F)C(=O)O)c23)ccc(OCCN2CCN(C)CC2)c1Cl` [Example 362, (2R)-2-{[(5Sa)-5-{3-chloro-2-methyl-4-[2-(4-methylpiperazin-1-yl)ethoxy]phenyl}-6-(furan-2-yl)thieno[2,3-d]pyrimidin-4-yl]oxy}-3-{2-[(2,2,2-trifluoroethyl)sulfanyl]phenyl}propanoic acid], for which the IC50 in experiment [1] (Homo sapiens, NCI-H929, 48 h) was 1 µM; on Mcl-1 protein, 2.6e-08 M.

As for `Cc1c(-c2c(-c3ccc(Cl)o3)sc3ncnc(OC(Cc4ccccc4OCC4CCCO4)C(=O)O)c23)ccc(OCCN2CCN(C)CC2)c1Cl` [Example 364, (2R)-2-{[6-(5-chlorofuran-2-yl)-(5Sa)-5-{3-chloro-2-methyl-4-[2-(4-methylpiperazin-1-yl)ethoxy]phenyl}thieno[2,3-d]pyrimidin-4-yl]oxy}-3-{2-[(2R)-tetrahydrofuran-2-ylmethoxy]phenyl}propanoic acid], the 50% inhibitory concentration (IC50) in experiment [1] (Homo sapiens, NCI-H929, 48 h) is 0.052 µM; at Mcl-1 protein it was 5.1e-09 M.

Consider `Cc1c(-c2c(-c3ccc(Cl)o3)sc3ncnc(OC(Cc4ccccc4OCC(F)(F)F)C(=O)O)c23)ccc(OCCN2CCN(C)CC2)c1Cl` [Example 365, (2R)-2-{[6-(5-chlorofuran-2-yl)-(5Sa)-5-{3-chloro-2-methyl-4-[2-(4-methylpiperazin-1-yl)ethoxy]phenyl}thieno[2,3-d]pyrimidin-4-yl]oxy}-3-[2-(2,2,2-trifluoroethoxy)phenyl]propanoic acid], for which the IC50 in experiment [1] (Homo sapiens, NCI-H929, 48 h) amounted to 0.026 µM; at Mcl-1 protein it was 5.9e-09 M.

Regarding `Cc1c(-c2c(-c3ccc(Cl)o3)sc3ncnc(OC(Cc4ccccc4OCc4ccccn4)C(=O)O)c23)ccc(OCCN2CCN(C)CC2)c1Cl` [Example 366, (2R)-2-{[6-(5-chlorofuran-2-yl)-(5Sa)-5-{3-chloro-2-methyl-4-[2-(4-methylpiperazin-1-yl)ethoxy]phenyl}thieno[2,3-d]pyrimidin-4-yl]oxy}-3-[2-(pyridin-2-ylmethoxy)phenyl]propanoic acid], the IC50 was determined as 0.346 µM in experiment [1] (Homo sapiens, NCI-H929, 48 h) and 8.6e-09 M on Mcl-1 protein.

In the case of `Cc1c(-c2c(-c3ccc(Cl)o3)sc3ncnc(OC(Cc4ccccc4OCc4ccnc(C(F)(F)F)n4)C(=O)O)c23)ccc(OCCN2CCN(C)CC2)c1Cl` [Example 367, (2R)-2-{[6-(5-chlorofuran-2-yl)-(5Sa)-5-{3-chloro-2-methyl-4-[2-(4-methylpiperazin-1-yl)ethoxy]phenyl}thieno[2,3-d]pyrimidin-4-yl]oxy}-3-(2-{[2-(trifluoromethyl)pyrimidin-4-yl]methoxy}phenyl)propanoic acid], the IC50 in experiment [1] (Homo sapiens, NCI-H929, 48 h) is 0.015 µM; on Mcl-1 protein, 3.2e-09 M.

As to `Cc1c(-c2c(-c3ccc(Cl)o3)sc3ncnc(OC(Cc4ccccc4OCc4ccnc(N5CCOCC5)n4)C(=O)O)c23)ccc(OCCN2CCN(C)CC2)c1Cl` [Example 368, (2R)-2-{[6-(5-chlorofuran-2-yl)-(5Sa)-5-{3-chloro-2-methyl-4-[2-(4-methylpiperazin-1-yl)ethoxy]phenyl}thieno[2,3-d]pyrimidin-4-yl]oxy}-3-(2-{[2-(morpholin-4-yl)pyrimidin-4-yl]methoxy}phenyl)propanoic acid], the half-inhibitory concentration (IC50) in experiment [1] (Homo sapiens, NCI-H929, 48 h) worked out at 0.005 µM; at Mcl-1 protein, 1.4e-08 M.

As to `COc1nccc(COc2ccccc2CC(Oc2ncnc3sc(-c4ccc(Cl)o4)c(-c4ccc(OCCN5CCN(C)CC5)c(Cl)c4C)c23)C(=O)O)n1` [Example 369, (2R)-2-{[6-(5-chlorofuran-2-yl)-(5Sa)-5-{3-chloro-2-methyl-4-[2-(4-methylpiperazin-1-yl)ethoxy]phenyl}thieno[2,3-d]pyrimidin-4-yl]oxy}-3-{2-[(2-methoxypyrimidin-4-yl)methoxy]phenyl}propanoic acid], the 50% inhibitory concentration (IC50) in experiment [1] (Homo sapiens, NCI-H929, 48 h) stood at 0.009 µM; at Mcl-1 protein it was 5.1e-09 M.

`Cc1c(-c2c(-c3ccc(Cl)o3)sc3ncnc(OC(Cc4ccccc4OCc4ccncn4)C(=O)O)c23)ccc(OCCN2CCN(C)CC2)c1Cl` [Example 370, (2R)-2-{[6-(5-chlorofuran-2-yl)-(5Sa)-5-{3-chloro-2-methyl-4-[2-(4-methylpiperazin-1-yl)ethoxy]phenyl}thieno[2,3-d]pyrimidin-4-yl]oxy}-3-[2-(pyrimidin-4-ylmethoxy)phenyl]propanoic acid]: the 50% inhibitory concentration (IC50) in experiment [1] (Homo sapiens, NCI-H929, 48 h) stood at 0.018 µM; on Mcl-1 protein it was 8.7e-09 M.

Turning to `Cc1c(-c2c(-c3ccc(Cl)o3)sc3ncnc(OC(Cc4ccccc4OCc4ccnn4C)C(=O)O)c23)ccc(OCCN2CCN(C)CC2)c1Cl` [Example 371, (2R)-2-{[6-(5-chlorofuran-2-yl)-(5Sa)-5-{3-chloro-2-methyl-4-[2-(4-methylpiperazin-1-yl)ethoxy]phenyl}thieno[2,3-d]pyrimidin-4-yl]oxy}-3-{2-[(1-methyl-1H-pyrazol-5-yl)methoxy]phenyl}propanoic acid], the IC50 in experiment [1] (Homo sapiens, NCI-H929, 48 h) is 0.027 µM; on Mcl-1 protein, 5.6e-09 M.

As to `CCn1nccc1COc1ccccc1CC(Oc1ncnc2sc(-c3ccc(Cl)o3)c(-c3ccc(OCCN4CCN(C)CC4)c(Cl)c3C)c12)C(=O)O` [Example 372, (2R)-2-{[6-(5-chlorofuran-2-yl)-(5Sa)-5-{3-chloro-2-methyl-4-[2-(4-methylpiperazin-1-yl)ethoxy]phenyl}thieno[2,3-d]pyrimidin-4-yl]oxy}-3-{2-[(1-ethyl-1H-pyrazol-5-yl)methoxy]phenyl}propanoic acid], the 50% inhibitory concentration (IC50) was 0.018 µM in experiment [1] (Homo sapiens, NCI-H929, 48 h) and 9.7e-09 M on Mcl-1 protein.

On to `Cc1c(-c2c(-c3ccc(Cl)o3)sc3ncnc(OC(Cc4ccccc4OCc4ccnn4CC(F)(F)F)C(=O)O)c23)ccc(OCCN2CCN(C)CC2)c1Cl` [Example 373, (2R)-2-{[6-(5-chlorofuran-2-yl)-(5Sa)-5-{3-chloro-2-methyl-4-[2-(4-methylpiperazin-1-yl)ethoxy]phenyl}thieno[2,3-d]pyrimidin-4-yl]oxy}-3-(2-{[1-(2,2,2-trifluoroethyl)-1H-pyrazol-5-yl]methoxy}phenyl)propanoic acid], for which the IC50 in experiment [1] (Homo sapiens, NCI-H929, 48 h) was 0.012 µM; on Mcl-1 protein it was 4.6e-09 M.

Take `Cc1c(-c2c(-c3ccc(Cl)o3)sc3ncnc(OC(Cc4ccccc4OCc4cnccn4)C(=O)O)c23)ccc(OCCN2CCN(C)CC2)c1Cl` [Example 374, (2R)-2-{[6-(5-chlorofuran-2-yl)-(5Sa)-5-{3-chloro-2-methyl-4-[2-(4-methylpiperazin-1-yl)ethoxy]phenyl}thieno[2,3-d]pyrimidin-4-yl]oxy}-3-[2-(pyrazin-2-ylmethoxy)phenyl]propanoic acid]: the IC50 in experiment [1] (Homo sapiens, NCI-H929, 48 h) came to 0.038 µM; on Mcl-1 protein, 9.2e-09 M.

In the case of `Cc1c(-c2c(-c3ccc(Cl)o3)sc3ncnc(OC(Cc4ccccc4OCc4cncnc4)C(=O)O)c23)ccc(OCCN2CCN(C)CC2)c1Cl` [Example 375, (2R)-2-{[6-(5-chlorofuran-2-yl)-(5Sa)-5-{3-chloro-2-methyl-4-[2-(4-methylpiperazin-1-yl)ethoxy]phenyl}thieno[2,3-d]pyrimidin-4-yl]oxy}-3-[2-(pyrimidin-5-ylmethoxy)phenyl]propanoic acid], the half-inhibitory concentration (IC50) is 0.081 µM in experiment [1] (Homo sapiens, NCI-H929, 48 h) and 5.6e-09 M on Mcl-1 protein.
